For this test, the target named is T1, Dual specificity protein kinase TTK (Homo sapiens, UniProt P33981).
T1 sequence (P33981 whole entry): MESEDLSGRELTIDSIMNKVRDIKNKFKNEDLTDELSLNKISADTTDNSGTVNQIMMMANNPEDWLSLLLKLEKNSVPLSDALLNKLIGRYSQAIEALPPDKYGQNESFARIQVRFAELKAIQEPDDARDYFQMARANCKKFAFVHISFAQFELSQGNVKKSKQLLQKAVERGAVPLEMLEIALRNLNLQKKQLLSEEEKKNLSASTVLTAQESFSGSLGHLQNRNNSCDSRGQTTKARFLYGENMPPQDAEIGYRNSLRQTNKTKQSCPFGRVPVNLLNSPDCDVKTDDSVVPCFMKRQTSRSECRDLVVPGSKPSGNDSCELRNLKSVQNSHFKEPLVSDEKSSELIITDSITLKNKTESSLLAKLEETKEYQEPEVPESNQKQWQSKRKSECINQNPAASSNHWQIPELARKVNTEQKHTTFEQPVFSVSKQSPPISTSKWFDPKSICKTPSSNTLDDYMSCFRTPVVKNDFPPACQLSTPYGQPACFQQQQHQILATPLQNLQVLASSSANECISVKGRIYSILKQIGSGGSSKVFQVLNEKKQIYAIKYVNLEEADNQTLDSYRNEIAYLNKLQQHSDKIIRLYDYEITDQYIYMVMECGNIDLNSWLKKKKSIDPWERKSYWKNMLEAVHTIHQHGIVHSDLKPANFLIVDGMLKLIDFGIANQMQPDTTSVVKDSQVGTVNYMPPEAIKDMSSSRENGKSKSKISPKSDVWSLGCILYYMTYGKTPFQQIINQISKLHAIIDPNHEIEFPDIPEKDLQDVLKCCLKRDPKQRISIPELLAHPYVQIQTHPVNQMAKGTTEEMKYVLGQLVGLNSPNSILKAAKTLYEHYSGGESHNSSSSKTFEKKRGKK
The test is described as follows: Kinase Assay: For the assay 50 nL of a 100-fold concentrated solution of the test compound in DMSO was pipetted into a black low volume 384 well microtiter plate (Greiner Bio-One, Frickenhausen, Germany), 2 ul of a solution of Mps-1 in assay buffer [0.1 mM sodium-ortho-vanadate, 10 mM MgCl2, 2 mM DTT, 25 mM Hepes pH 7.7, 0.05% BSA, 0.001% Pluronic F-127] were added and the mixture was incubated for 15 min at 22° C. to allow pre-binding of the test compounds to Mps-1 before the start of the kinase reaction. Then the kinase reaction was started by the addition of 3 ul of a solution of 16.7 adenosine-tri-phosphate (ATP, 16.7 uM=>final conc. in the 5 ul assay volume is 10 uM) and peptide substrate (1.67 uM=>final conc. in the 5 ul assay volume is 1 uM) in assay buffer and the resulting mixture was incubated for a reaction time of 60 min at 22° C. The concentration of Mps-1 in the assay was adjusted to the activity of the enzyme lot.

Consider one molecule from ChEMBL document CHEMBL3886421, “6-thio-substituted imidazo[1,2-a]pyrazines as Mps-1 inhibitors” (2015).

For the molecule `CCCSc1cn2c(-c3ccc(C(=O)NC4CC4)c(C)c3)cnc2c(NCC(C)(C)O)n1`, the concentration for half-maximal inhibition (IC50) – broadly, the point on the concentration scale where inhibition reaches its midpoint – was 52.1 nM.
